# Measured values as given in patent US9440964B2, “Pesticidal compositions and processes related thereto” (Dow AgroSciences LLC, priority 2011, dated 2016).
# Read-outs that look alike come from different tables or passages of the source.
# Tests used:
# CEW (Helicoverpa zea) = experiment: Bioassay on Corn Earworm (CEW), 128-well diet tray; assay type: in vivo; settings: Helicoverpa zea, 168 h; for pest or weed control at 50 µg/cm2: read-out: Rating CEW; for pest or weed control at 0.5 µg/cm2: 0.5 μg/cm^2 on diet, read-out: Rating CEW (*Tested at 0.5 μg/cm^2)
# Method: (§1) Certain molecules disclosed in this document were tested against BAW and CEW using procedures described in the following examples. In the reporting of the results, the “BAW & CEW Rating Table” was used (See Table Section).
# Bioassays on CEW (Helicoverpa zea)
# (§2) Trays were covered with a clear self-adhesive cover and held at 25° C., 14:10 light-dark for five to seven days. Percent mortality was recorded for the larvae in each well; activity in the eight wells was then averaged. The results are indicated in the table entitled “Table ABC: Biological Results” (See Table Section).
# BAW (Spodoptera exigua) = experiment: Bioassay on Beet Armyworm (BAW), 128-well diet tray; assay type: in vivo; settings: Spodoptera exigua, 168 h, read-out: Rating BAW
# Method: as §1
# Bioassays on BAW (Spodoptera exigua)
# as §2
# [1] = percent mortality, second instar larvae, 50 μg/cm^2 on diet, five to seven days
# [2] = percent mortality, second instar larvae, five to seven days
Structure (SMILES),pest or weed control at 50 µg/cm2 (CEW (Helicoverpa zea); [1]) [%],pest or weed control at 50 µg/cm2 (BAW (Spodoptera exigua); [1]) [%],other results
"COc1ccc(N/C(=N/C(=O)Nc2ccc(-c3ncn(-c4ccc(C(F)(F)F)cc4)n3)cc2)SCOC(=O)C(C)C)c(C)c1 [Molecule A1, (E)-((N′-(4-methoxy-2-methylphenyl)-N-((4-(1-(4-(trifluoromethyl)phenyl)-1H-1,2,4-triazol-3-yl)phenyl)carbamoyl)carbamimidoyl)thio) methyl isobutyrate]",50 to 100,50 to 100,–
"COc1ccc(N/C(=N/C(=O)Nc2ccc(-c3ncn(-c4ccc(C(F)(F)F)cc4)n3)cc2)SC)c(C)c1 [Molecule A2, (Z)-Methyl N-(4-methoxy-2-methylphenyl)-N′-((4-(1-(4-(trifluoromethyl)phenyl)-1H-1,2,4-triazol-3-yl)phenyl)carbamoyl)carbamimidothioate]",50 to 100,50 to 100,–
"CC(C)C(=O)OCS/C(=N\C(=O)Nc1ccc(-c2ncn(-c3ccc(OC(F)(F)F)cc3)n2)cc1)Nc1ccccc1C(C)C [Molecule A5, (Z)—((N-(2-Isopropylphenyl)-N′-((4-(1-(4-(trifluoromethoxy)phenyl)-1H-1,2,4-triazol-3-yl)phenyl)carbamoyl)carbamimidoyl)thio)methyl isobutyrate]",50 to 100,50 to 100,–
"CC(C)C(=O)OCS/C(=N\C(=O)Nc1ccc(-c2ncn(-c3ccc(OC(F)(F)C(F)(F)F)cc3)n2)cc1)Nc1ccccc1C(C)C [Molecule A6, (Z)—((N-(2-Isopropylphenyl)-N′-((4-(1-(4-(pentafluoroethoxy)phenyl)-1H-1,2,4-triazol-3-yl)phenyl)carbamoyl)carbamimidoyl)thio)methyl isobutyrate]",50 to 100,50 to 100,–
"Cc1cccc(C)c1N/C(=N/C(=O)Nc1ccc(-c2ncn(-c3ccc(C(F)(F)F)cc3)n2)cc1)SCOC(=O)CNC(=O)OCc1ccccc1 [Molecule A8, (Z)—((N-(2,6-Dimethylphenyl)-N′-((4-(1-(4-(trifluoromethyl)phenyl)-1H-1,2,4-triazol-3-yl)phenyl)carbamoyl)carbamimidoyl)thio)methyl 2-(((benzyloxy)carbonyl)amino)acetate]",–,–,pest or weed control at 50 µg/cm2 (CEW (Helicoverpa zea)): 50 to 100%; pest or weed control at 50 µg/cm2 (BAW (Spodoptera exigua)): 50 to 100%
"COc1ccc(N/C(=N/C(=O)Nc2ccc(-c3ncn(-c4ccc(OC(F)(F)F)cc4)n3)cc2)SCS[C@@H]2O[C@@H](C)[C@H](OC)[C@@H](OC)[C@H]2OC)c(C)c1 [Molecule A10, (Z)-(((2S,3R,4R,5S,6S)-3,4,5-Trimethoxy-6-methyltetrahydro-2H-pyran-2-yl)thio)methyl N-(4-methoxy-2-methylphenyl)-N′-((4-(1-(4-(trifluoromethoxy)phenyl)-1H-1,2,4-triazol-3-yl)phenyl)carbamoyl) carbamimidothioate]",50 to 100,50 to 100,–
Cc1cccc(C)c1N/C(S)=N/C(=O)Nc1ccc(-c2ncn(-c3ccc(C(F)(F)F)cc3)n2)cc1 [Molecule A12],50 to 100,50 to 100,–
"CC(C)c1ccccc1NC(=O)NC(=O)Nc1ccc(-c2ncn(-c3ccc(OC(F)(F)F)cc3)n2)cc1 [Molecule A13, 1-(2-isopropylphenyl)-3-[[4-[1-[4-(trifluoromethoxy)phenyl]-1,2,4-triazol-3-yl]phenyl]carbamoyl]urea]",50 to 100,50 to 100,–
"CC(C)c1ccccc1N1C(=O)CS/C1=N\C(=O)Nc1ccc(-c2ncn(-c3ccc(OC(F)(F)F)cc3)n2)cc1 [Molecule A19, (Z)-1-(3-(2-isopropylphenyl)-4-oxothiazolidin-2-ylidene)-3-(4-(1-(4-(trifluoromethoxy)phenyl)-1H-1,2,4-triazol-3-yl)phenyl)urea]",50 to 100,50 to 100,–
"CC(=O)/C(C(=O)Nc1ccc(-c2ncn(-c3ccc(OC(F)(F)F)cc3)n2)cc1)=C(/S)Nc1ccccc1C(C)C [Molecule A20, (E)-3-hydroxy-2-((2-isopropylphenyl)carbamothioyl)-N-(4-(1-(4-(trifluoromethoxy)phenyl)-1H-1,2,4-triazol-3-yl)phenyl)but-2-enamide]",50 to 100,50 to 100,–
"CC(C)c1ccccc1N/C(S)=C/C(=O)Nc1ccc(-c2ncn(-c3ccc(OC(F)(F)F)cc3)n2)cc1 [Molecule A21, 3-((2-isopropylphenyl)amino)-3-thioxo-N-(4-(1-(4-(trifluoromethoxy)phenyl)-1H-1,2,4-triazol-3-yl)phenyl)propanamide]",50 to 100,50 to 100,–
"Cc1ccccc1N/C(S)=C/C(=O)Nc1ccc(-c2ncn(-c3ccc(OC(F)(F)F)cc3)n2)cc1 [Molecule A22, 3-thioxo-3-(o-tolylamino)-N-(4-(1-(4-(trifluoromethoxy)phenyl)-1H-1,2,4-triazol-3-yl)phenyl)propanamide]",50 to 100,50 to 100,–
"Cc1cccc(C)c1N/C(S)=C/C(=O)Nc1ccc(-c2ncn(-c3ccc(OC(F)(F)F)cc3)n2)cc1 [Molecule A23, 3-((2,6-dimethylphenyl)amino)-3-thioxo-N-(4-(1-(4-(trifluoromethoxy)phenyl)-1H-1,2,4-triazol-3-yl)phenyl)propanamide]",50 to 100,50 to 100,–
"CC(C)c1ccccc1N1C(=O)CS/C1=C\C(=O)Nc1ccc(-c2ncn(-c3ccc(OC(F)(F)F)cc3)n2)cc1 [Molecule A24, (Z)-2-(3-(2-isopropylphenyl)-4-oxothiazolidin-2-ylidene)-N-(4-(1-(4-(trifluoromethoxy)phenyl)-1H-1,2,4-triazol-3-yl)phenyl)acetamide]",50 to 100,50 to 100,–
"CC(C)c1ccccc1N/C(S)=C(\C#N)C(=O)Nc1ccc(-c2ncn(-c3ccc(OC(F)(F)F)cc3)n2)cc1 [Molecule A25, (Z)-2-cyano-3-((2-isopropylphenyl)amino)-3-mercapto-N-(4-(1-(4-(trifluoromethoxy)phenyl)-1H-1,2,4-triazol-3-yl)phenyl)acrylamide]",0 to 50,–,–
"N#C/C(C(=O)Nc1ccc(-c2ncn(-c3ccc(OC(F)(F)F)cc3)n2)cc1)=C(/S)Nc1ccccc1-c1ccccc1 [Molecule A27, (Z)-3-([1,1′-Biphenyl]-2-ylamino)-2-cyano-3-mercapto-N-(4-(1-(4-(trifluoromethoxy)phenyl)-1H-1,2,4-triazol-3-yl)phenyl)acrylamide]",0 to 50,–,–
"Cc1cccc(C)c1N/C(S)=C(\C#N)C(=O)Nc1ccc(-c2ncn(-c3ccc(OC(F)(F)F)cc3)n2)cc1 [Molecule A28, (Z)-2-Cyano-3-mercapto-3-((2,6-dimethylphenyl)amino)-N-(4-(1-(4-(trifluoromethoxy)phenyl)-1H-1,2,4-triazol-3-yl)phenyl)acrylamide]",50 to 100,–,–
Cc1cccc(C)c1-n1c(C)cs/c1=N\C(=O)Nc1ccc(-c2ncn(-c3ccc(OC(F)(F)F)cc3)n2)cc1 [Molecule A42],–,0 to 50,–
"Cc1cc(C)c(-n2c(C)cs/c2=N\C(=O)Nc2ccc(-c3ncn(-c4ccc(OC(F)(F)F)cc4)n3)cc2)c(C)c1 [Molecule A43, (Z)-1-(3-mesityl-4-methylthiazol-2(3H)-ylidene)-3-(4-(1-(4-(trifluoromethoxy)phenyl)-1H-1,2,4-triazol-3-yl)phenyl)urea]",50 to 100,–,–
O=C(/N=C1\SCC(=O)N1c1ccccc1C1CC1)Nc1ccc(-c2ncn(-c3ccc(OC(F)(F)F)cc3)n2)cc1 [Molecule A66],–,50 to 100,–
Cc1cccc(N/C(S)=N/C(=O)Nc2ccc(-c3ncn(-c4ccc(OC(F)(F)F)cc4)n3)cc2)c1C [Molecule A71],–,50 to 100,–
Cc1ccc(C(C)C)c(N/C(S)=N/C(=O)Nc2ccc(-c3ncn(-c4ccc(OC(F)(F)F)cc4)n3)cc2)c1 [Molecule A83],–,50 to 100,–
CC(C)(C)c1ccccc1N1C(=O)CS/C1=N\C(=O)Nc1ccc(-c2ncn(-c3ccc(OC(F)(F)F)cc3)n2)cc1 [Molecule A95],–,–,pest or weed control at 0.5 µg/cm2 (CEW (Helicoverpa zea); [2]): 50 to 100%
"CC(C)c1ccccc1N/C(S)=N/C(=O)Nc1ccc(-c2nnc(-c3ccc(OC(F)(F)C(F)(F)F)cc3)o2)cc1 [Molecule A96, N-[[(2-isopropyllphenyl)amino]thioxomethyl]-N′-((4-(5-(4-(perfluoroethoxy)phenyl)-1,3,4-oxadiazol-2-yl)phenyl))urea]",–,50 to 100,–
"CC(C)c1ccccc1N1C(=O)CS/C1=N\C(=O)Nc1ccc(-c2nnc(-c3ccc(OC(F)(F)C(F)(F)F)cc3)o2)cc1 [Molecule A102, (Z)-1-(3-(2-isopropylphenyl)-4-oxothiazolidin-2-ylidene)-3-(4-(5-(4-(perfluoroethoxy)phenyl)-1,3,4-oxadiazol-2-yl)phenyl)urea]",–,–,pest or weed control at 0.5 µg/cm2 (CEW (Helicoverpa zea); [2]): 50 to 100%
Cc1cc(C)cc(N2C(=O)CS/C2=N\C(=O)Nc2ccc(-c3ncn(-c4ccc(OC(F)(F)F)cc4)n3)cc2)c1 [Molecule A104],–,–,pest or weed control at 0.5 µg/cm2 (CEW (Helicoverpa zea); [2]): 50 to 100%
CC(C)c1ccccc1N/C(S)=N/C(=O)Nc1ccc(-c2ncn(-c3ccc(OC(F)(F)C(F)(F)F)cc3)n2)cc1 [Molecule A112],–,50 to 100,–
CC(C)c1ccccc1N/C(S)=N/C(=O)Nc1ccc(-c2ncn(-c3ccc(C(F)(F)C(F)(F)C(F)(F)F)cc3)n2)cc1 [Molecule A113],–,–,pest or weed control at 50 µg/cm2 (BAW (Spodoptera exigua)): 50 to 100%
